{"source": "patent US20240393319A1", "about": "“FLUORESCENT SENSORS AND METHODS OF MAKING AND USING” (Howard Hughes Medical Institute, priority 2023, published 2024)", "key": {"[1]": {"biological_target": "T1, iATPSnFR2.A95A.A119L.HaloTag-JFX650 (L1-VLVG, L2-ICV); cpSFGFP inserted in epsilon subunit of Bacillus subtilis PS3 F0-F1 ATPase; mutations A95A, A119L; SEQ ID N (Bacillus sp. PS3, UniProt P07678)", "T1 construct": "E. coli, Ni-NTA purified", "T1 sequence (P07678 whole entry, stated change not applied)": "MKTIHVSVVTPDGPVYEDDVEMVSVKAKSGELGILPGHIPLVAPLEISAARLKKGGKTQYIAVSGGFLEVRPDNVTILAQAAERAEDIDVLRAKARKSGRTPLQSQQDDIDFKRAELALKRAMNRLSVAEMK", "experiment": "ATP/nucleotide titration, binding curve fits", "settings": "for fluorescence change in response to nucleoside triphosphate: GTP, CTP, TTP; for Kd: A95A.A119L", "text": "(1A) Artistic rendering of iATPSnFR2.HaloTag made with PyMol. The N-terminal fragment (residues 1-109) of the epsilon subunit of ATPase (orange, based on 2E5Y.PDB) is fused to cpSFGFP (green). The C-terminus of cpSFGFP is fused to the residual ATP-binding helix (residues 110-129) of the epsilon subunit (pink), which itself is fused to HaloTag (cyan). “Linkers” are shown as sticks in yellow. […] HaloTag fluorophore is shown as sticks in red. […] (1C-1E) Ratio of green (iATPSnFR2) to red (HaloTag-JFX650) fluorescence in fibroblasts transfected with three affinity variants of iATPSnFR2-HaloTag. […] Cells were incubated for 21 minutes in buffer containing 10 mM glucose, and then switched to buffer containing 10 mM 2-deoxyglucose. (1C) Rho° cells. (1D) Parental LMTK cell line. (1E) Parental cell line treated with both 2-deoxyglucose and oligomycin.\nATP (black), CTP (cyan), GTP (grey), TTP (purple).\n(§1) Purified protein was mixed with 1.1 molar equivalents of JFX650 HaloTag Ligand and incubated at room temperature for 1 hour and then at 4° C. overnight. Excess HaloTag Ligand was removed by gel filtration on a PD-10 column (GE Life Sciences) and re-concentrated by ultrafiltration.\nThe iATPSnFR2.HaloTag-JFX650 was the primary protein used for in vitro characterization."}, "[2]": {"test_system": "axonal mitochondria of primary neurons", "experiment": "Axonal mitochondrial ATP (mito-iATPSnFR2) after removal of glucose", "assay_type": "cell-based", "method": "Similar results were obtained in neurons where LDs were induced by blocking DDHD2 activity with KLH45 for 24 hours."}, "[3]": {"test_system": "axonal mitochondria of primary hippocampal neurons", "experiment": "Mitochondrial matrix ATP without glucose (mito-iATPSnFR2)", "assay_type": "cell-based, Sprague-Dawley rats", "method": "Data is represented as mean±SE for N=4 (each condition). […] Data from N=4 for each condition is represented as mean±SE, p-value (**≤0.001 for PA and PA+Etox) was determined using unpaired samples t-test. ns signifies non-significant change in mean values.\n(§2) Primary neuronal cultures were prepared as previously described. Hippocampal CA1 to CA3 regions were dissected, dissociated, and plated onto poly-L-ornithine-coated coverslips. Plating media consisted of the minimal essential medium, 0.5% glucose, insulin (0.024 g/l), transferrin ([…]), GlutaMAX 1%, N-21 (2%), and fetal bovine serum (10%). After 1-3 days in vitro (DIV), cells were fed and maintained in media with the following modifications: cytosine β-D-arabinofuranoside (4 μM) and FBS 5%. Cultures were incubated at 37° C. in a 95% air/5% CO2 incubator. […]\n(§3) Coverslips were loaded onto a custom chamber, mounted on a Zeiss inverted microscope and perfused at ˜100 μl min^−1 with Tyrode's solution containing: 119 mM NaCl, 2.5 mM KCl, 30 mM glucose, 25 mM HEPES, 2 mM CaCl2), 2 mM MgCl2, 50 μM DL-2-amino-5-phosphonovaleric acid (APV, AP5), 10 μM 6-cyano-7-nitroquinoxaline-2,3-dione (CNQX), adjusted to pH 7.4. […] Fluorescence was stimulated with OBIS 488 nm LX or OBIS 637 nm LS lasers (Coherent) passing through a laser speckle reducer (LSR 3005 at 12° diffusion angle, Optotune). […]"}, "[4]": {"experiment": "Stopped-flow fluorescence kinetics of ATP binding", "method": "Final concentration of protein was thus 0.1 μM."}, "[5]": {"experiment": "pH dependence of fluorescence", "assay_type": "physicochemical", "settings": "ligand-free sensor"}, "[6]": {"experiment": "ATP titration with added inorganic phosphate", "assay_type": "binding", "settings": "20 mM PO4, pH 7"}, "Rho° (ρ^0) cells": {"test_system": "Rho° (ρ^0) cells", "experiment": "Green:red ratio imaging in Rho° fibroblasts", "assay_type": "cell-based, mouse", "settings": "10 mM 2dOG", "method": "(§4) Rho° and the parental LMTK-cells were maintained in T-75 flasks with DMEM+10% FBS+1 mM pyruvate+5 μM uridine. Two days prior to transfection, they were split into a 24-well plate (half Rho°, half LMTK) at 0.6 and 0.1 million cells per well, respectively. Cells were transfected with iATPSnFR2.HaloTag variants by lipofectamine (0.5 μg DNA+2 μL lipofectamine 2000 per well) for 4-6 hours in DMEM lacking FBS or antibiotics. Transfection media was replaced with fresh DMEM+10% FBS+penicillin/streptomycin overnight. Cells were labeled with JFX650 HaloTag ligand by adding the fluorophore to 100 nM for an hour. Cells were washed with Mammalian Cell Imaging Buffer and imaged in a Cytation 5 imaging reader (BioTek) over the course of about 2 hours. After about 20 minutes of imaging to establish a baseline fluorescence, the culture plate was removed from the instrument and buffer was replaced with the query buffer. The equilibration buffer contained 10 mM glucose, and the query buffers contained 10 mM 2dOG.\n(§5) Images were background subtracted and aligned for movement artefacts with the Gen5 software package that controls the Cytation 5 instrument. Images were assembled as TIF stacks and imported into ImageJ. […] Those ROIs were used to determine the ratio of green to red fluorescence for each well. […]"}, "[7]": {"experiment": "TTP titration of purified iATPSnFR2 sensor", "assay_type": "binding", "method": "iATPSnFR2 variants were transformed into E. coli BL21 (DE3) pLysS cells. Protein expression was induced by growth in 300 mL autoinduction media supplemented with 100 μg/mL ampicillin at 30° C. […] Fractions that were fluorescent were pooled and concentrated by ultrafiltration (Amicon) and then dialyzed by Slide-A-Lyzer cassette (30 kDa cutoff) in Mammalian Cell Imaging Buffer. Protein concentration was quantified by alkali denaturation and measurement of the GFP chromophore, with an extinction coefficient of […] at 447 nm.\nas §1"}, "[8]": {"test_system": "synaptic boutons of hippocampal neurons", "experiment": "Syn-iATPSnFR2.HaloTag imaging of ATP depletion in boutons", "assay_type": "cell-based, rat", "settings": "5 mM glucose + 10 μM KA + 0.3 μM TTX"}, "[9]": {"test_system": "axonal mitochondria of primary hippocampal neurons", "experiment": "mito-iATPSnFR2.HaloTag imaging of mitochondrial ATP in neurons", "assay_type": "cell-based, rat", "settings": "1.25 mM lactate + 1.25 mM pyruvate + 10 μM oligomycin", "method": "All experiments involving animals were performed in accordance with protocols approved by the Weill Cornell Medicine Institutional Animal Care and Use Committee. Neurons were derived from Sprague-Dawley rats (Charles River Laboratories strain code: 001, RRID: RGD_734476) of either sex on postnatal days 0-2).\nas §2, §3"}, "LMTK- cells": {"test_system": "LMTK- cells", "experiment": "Green:red ratio imaging in parental LMTK- fibroblasts", "assay_type": "cell-based, mouse", "method": "as §4, §5"}, "ChemoG-ATPSiR": {"test_system": "ChemoG-ATPSiR", "settings": "cited from earlier work"}, "MaLion": {"test_system": "MaLion", "settings": "cited from earlier work"}}, "note": "Where two headings read alike, the source gives them in different places.", "data": [{"molecule": "Nc1ccn([C@@H]2O[C@H](COP(=O)(O)OP(=O)(O)OP(=O)(O)O)[C@@H](O)[C@H]2O)c(=O)n1", "note": "[CTP]", "values": [{"measurement": "fluorescence change in response to nucleoside triphosphate", "setting": "[1]; FIG. 5E", "value": "changes fluorescence"}, {"measurement": "Kd", "setting": "[1]; read-out: affinity for CTP (binding curve fit), FIG. 5E", "value": "~10", "unit": "mM"}]}, {"molecule": "Nc1ncnc2c1ncn2[C@@H]1O[C@H](COP(=O)(O)OP(=O)(O)O)[C@@H](O)[C@H]1O", "note": "[ADP]", "values": [{"measurement": "ΔF/F for ADP", "setting": "[1]", "value": "~6"}, {"measurement": "Kd", "setting": "[1]; read-out: affinity for ADP (binding curve fit), head-to-head with ATP", "value": 5.3, "unit": "mM"}, {"measurement": "Kd", "setting": "[1]; read-out: affinity for ADP, FIG. 1B, 5D", "value": 5.3, "unit": "mM"}]}, {"molecule": "Nc1ncnc2c1ncn2[C@@H]1O[C@H](COP(=O)(O)O)[C@@H](O)[C@H]1O", "note": "[AMP]", "values": [{"measurement": "affinity for AMP", "setting": "[1]", "value": "minimal, if any, affinity"}]}, {"molecule": "O=C(N(CCc1ccccc1)C1CCCCC1)n1ncc(-c2ccc(OC(F)(F)F)cc2)n1", "note": "[KLH45]", "values": [{"measurement": "mitochondrial ATP levels after removal of glucose", "setting": "[2]; DDHD2 blocked for 24 hours, then glucose and KLH45 removed", "value": "sustained"}, {"measurement": "mitochondrial ATP levels in absence of glucose", "setting": "[3]; KLH45 for 24 hours, then removed", "value": "ATP levels are sustained"}]}, {"molecule": "S29W.A95K: high affinity iATPSnFR2 variant, characterised as HaloTag-JFX650 fusion", "values": [{"measurement": "rate of ATP binding / fluorescence change, comparison", "setting": "[4]", "value": "faster than A95A.A119L"}]}, {"molecule": "CCCCCCCCCCCCCCCC(=O)O", "note": "[palmitic acid]", "values": [{"measurement": "mitochondrial ATP levels in absence of glucose", "setting": "[2]; pre-fed for 4 hours, 10 minutes", "value": "sustained"}, {"measurement": "mitochondrial ATP levels in absence of glucose", "setting": "[3]; palmitic acid pre-fed for 4 hours, 10 minutes", "value": "mitochondrial ATP levels were sustained"}]}, {"molecule": "iATPSnFR2: improved ATP sensor: cpSFGFP inserted in epsilon subunit of ATPase, L1-VLVG, L2-ICV, A95A, A119L", "values": [{"measurement": "pKa", "setting": "[5]", "value": "about 6.0"}, {"measurement": "effect of inorganic phosphate on the sensor", "setting": "[6]", "value": "not affected"}]}, {"molecule": "A95A.A119L: low affinity iATPSnFR2 variant, characterised as HaloTag-JFX650 fusion", "values": [{"measurement": "effect of inorganic phosphate on the sensor", "setting": "[6]", "value": "negligibly affected"}, {"measurement": "green fluorescence after glucose replaced with 2dOG", "setting": "Rho° (ρ^0) cells", "value": "nearly non-fluorescent within minutes of treatment"}, {"measurement": "fluorescence response to TTP", "setting": "[7]", "value": "but not TTP"}, {"measurement": "average green to red fluorescence ratio in boutons", "setting": "[8]", "value": "greater drop than the medium affinity A95K variant"}]}, {"molecule": "CCOC(=O)[C@@]1(CCCCCCOc2ccc(Cl)cc2)CO1", "note": "[etomoxir]", "values": [{"measurement": "mitochondrial ATP levels after removal of glucose", "setting": "[2]; after KLH45 24 hours, etomoxir included", "value": "ATP decline over a 10-minute period"}, {"measurement": "decline in mitochondrial ATP level", "setting": "[2]; palmitic acid pre-fed neurons, applied when removing glucose", "value": "identical to the control neurons without any fuel supplement"}]}, {"molecule": "CC[C@H]1/C=C/C=C/C[C@@H](C)[C@H](O)[C@@](C)(O)C(=O)[C@@H](C)[C@H](O)[C@@H](C)C(=O)[C@@H](C)[C@H](O)[C@@H](C)/C=C/C(=O)O[C@@H]2[C@H](C)[C@H](CC1)O[C@]1(CC[C@H](C)[C@H](C[C@@H](C)O)O1)[C@H]2C", "note": "[oligomycin]", "values": [{"measurement": "mitochondrial ATP signal", "setting": "[9]", "value": "further collapse of the ATP signal"}, {"measurement": "fluorescence after 2dOG and oligomycin", "setting": "LMTK- cells; parental cells, both 2dOG and oligomycin", "value": "dropped in a manner similar to the ρ^0 cells"}]}, {"molecule": "Cc1cn([C@H]2C[C@H](O)[C@@H](COP(=O)(O)OP(=O)(O)OP(=O)(O)O)O2)c(=O)[nH]c1=O", "note": "[TTP]", "values": [{"measurement": "fluorescence change in response to nucleoside triphosphate", "setting": "[1]; FIG. 5E", "value": "not"}]}, {"molecule": "O=CC[C@@H](O)[C@H](O)[C@H](O)CO", "note": "[2dOG, 2-deoxyglucose]", "values": [{"measurement": "green fluorescence after glucose replaced with 2dOG", "setting": "Rho° (ρ^0) cells", "value": "rapidly dropped"}, {"measurement": "fluorescence after 2dOG treatment", "setting": "LMTK- cells; 10 mM 2dOG, parental LMTK- cells", "value": "decreased fluorescence only in the parental LMTK-cells expressing the weakest affinity variant"}]}, {"molecule": "Nc1nc2c(ncn2[C@@H]2O[C@H](COP(=O)(O)OP(=O)(O)OP(=O)(O)O)[C@@H](O)[C@H]2O)c(=O)[nH]1", "note": "[GTP]", "values": [{"measurement": "change in fluorescence with GTP", "setting": "ChemoG-ATPSiR", "value": "no change in fluorescence"}, {"measurement": "change in fluorescence with GTP", "setting": "MaLion", "value": "no change in fluorescence"}, {"measurement": "fluorescence change in response to nucleoside triphosphate", "setting": "[1]; FIG. 5E", "value": "changes fluorescence"}, {"measurement": "Kd", "setting": "[1]; read-out: affinity for GTP (binding curve fit), FIG. 5E", "value": "~10", "unit": "mM"}]}]}
